Tests used:
Huh7/Rep-Feo cells = experiment: Primary HTS cell viability counter-screen (CellTiterGlo); assay type: cell-based, human; conditions: for C-CompZ, compositeZ score for cell viability assay: Table 2 antiviral hits of DOS set, approximately 10-50 μM, most at 33 μM, 48 hours
Procedure: Primary Screening-HTS. Information about the library of known bioactive compounds that was screened and the general automated HTS protocol is available at http://www.broad.harvard.edu/chembio/index.html (see FIG. 10 for list of primary HTS with known bioactives library). Based on the results of optimization experiments in the 384-well plate format, the general HTS protocol was adapted as follows. Unless otherwise indicated, cells were incubated at all times in a humidified environment with 5% CO2 at 37° C. The assay was initiated by plating 30 μL of medium containing 2000 cells/well into white 384-well opaque-bottom plates (Nunc, Rochester, N.Y.) using an automated plate filler (Bio-Tek uFiller; Winsooki, Vt.) and allowing the cells to adhere for 24 hours. One hundred nL of compound stock solutions in DMSO was transferred from stock plates into the 384-well assay plates using an automated pin-based compound transfer robot (CyBio CyBi-Well vario; Woburn, Mass.). The final compound concentration in each well was estimated to be approximately 10-50 μM, with most compounds at 33 μM. The wells contained 0.33% DMSO by volume. The cells were then incubated for another 48 hours. The luminescent signal from each plate was detected using an automated plate reader (Perkin-Elmer Envision 1; Wellesley, Mass.). This screen was performed in duplicate. For negative controls, entire DMSO-treated control plates were employed, in addition to DMSO-only control wells that were incorporated into each compound assay plate. The cells were assayed for luciferase activity using the Bright-Glo Luciferase assay system (Promega), following the manufacturer's instructions. As a counter-screen, cell viability was assessed using the CellTiterGlo Luminescent cell viability assay (Promega) following the manufacturer's instructions.
Computational Data Analysis-Primary Screening. For each replicate, a mock-treatment distribution based on the total population of mock (DMSO) controls in that replicate was built (FIG. 11). Each compound was independently assigned a sign (ie, “+” or “−”) Z-score. Z-scores are calculated by dividing each background-subtracted, compound-treated well by the global standard deviation. A global standard deviation of the background-subtracted, mock-treated wells is calculated over the entire experiment. This distribution was determined to be consistent with experimental noise observed under cell-based assay conditions. The resulting collection of continuousvalued Z-scores represents the primary data set to be used for further analysis. The composite Z-score was calculated as a vector projection of each Z-score in duplicate onto an imaginary line of perfect reproducibility. Reproducibility is the cosine of the angle between each Z-score and that imaginary line; it is dimensionless and ranges from −1 to +1. […] The primary data were analyzed using the commercial software packages Pipeline Pilot (SciTegic, San Diego, Calif.) and SpotFire (SpotFire, Inc., Somerville, Mass.). The means of the negative, DMSO-only controls were considered the zero point.
Primary Screening—HTS: Unless otherwise indicated, cells were incubated at all times in a humidified environment with 5% CO2 at 37° C. The assay was initiated by plating 30 μl of medium containing 2,000 cells/well into white 384-well opaque-bottom plates (Nunc; Rochester, N.Y.) using an automated plate filler (Bio-Tek μFiller; Winsooki, Vt.) and allowing the cells to adhere for 24 hours. 100 nl of compound stock solutions in DMSO were transferred from stock plates into the 384-well assay plates using an automated pin-based compound transfer robot (CyBio CyBi-Well vario; Woburn, Mass.). The final compound concentration in each well was estimated to be approximately 10-50 μM, with most compounds at 33 μM. The wells contained 0.33% DMSO by volume. The cells were then incubated for another 48 hours. […]

[1] = test system: Huh7/Rep-Feo HCV replicon (HCV RNA replication); assay type: cell-based, Hepatitis C virus (strain HCV—N, genotype 1b); conditions: approximately 10-50 μM, most at 33 μM; for R-CompZ, compositeZ score for reporter gene assay: Table 2 antiviral hits of DOS set, 48 hours

Row | SMILES | C-CompZ, compositeZ score for cell viability assay (Huh7/Rep-Feo cells) | R-CompZ, compositeZ score for reporter gene assay [1] | cytotoxicity in the primary screen (Huh7/Rep-Feo cells; tested at 33 μM) | primary screen hit result (in words) ([1]; known bioactives library)
1 | O=C1C2(CO)C=C(Br)C(CC2c2ccccc2)[C@@]12CO2 (stereo partly drawn) [SM_A6B5_2P100] | −0.2965 | −3.1341 | – | –
2 | COc1cc2c(cc1OC)-c1c/c(=N\c3c(C)cc(C)cc3C)n(C)c(=O)n1CC2 [trequinsin, reference compound] | – | – | cytotoxic | not identified as a hit
3 | O=C1C2C=C(I)C(CC2OCCCCO)[C@@]12CO2 (stereo partly drawn) [SM_A5B3_2P141] | 0.6345 | −2.5923 | – | –
4 | Cc1cc(C)c(-c2cc([C@H](C)O/N=C3/[C@H]4CCn5c(=O)n(-c6ccccc6)c(=O)n5[C@H]4[C@H](O)[C@@H]4O[C@H]34)on2)c(C)c1 [BUCMLD-B10A11] | −1.7178 | −4.7324 | – | –
5 | Cc1cc2c(nc1C)CCCN2CC(C)O/N=C1/[C@H]2CCn3c(=O)n(-c4ccccc4)c(=O)n3[C@H]2[C@H](O)[C@@H]2O[C@H]12 (stereo partly drawn) [BUCMLD-B10A5] | 0.3574 | −3.0849 | – | –
6 | CC(=O)OC[C@H]1O[C@H](CCO/N=C2/[C@H]3CCn4c(=O)n(-c5ccccc5)c(=O)n4[C@H]3[C@H](O)[C@@H]3O[C@H]23)C=C[C@@H]1OC(C)=O [BUCMLD-B10A3] | −1.8907 | −4.6336 | – | –

Source: US20120094939A1, “ANTI-VIRAL COMPOUNDS, COMPOSITIONS AND METHODS” (priority 2007, published 2012)
